Test system: 252836-082-R-J2-PDC tumor spheroids, viability
Experiment: Anticancer human tumor 252836-082-R-J2-PDC patient-derived head and neck squamous cell carcinoma cell line growth inhibition [PI3K]
Details: spheroids with HUVEC and MSC; for IC50: curve of first compound; for viability, T/C: stronger effect = lower value
Summary of the method: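 Stroma-containing spheroids: tumor line, pooled-donor HUVEC, hMSC. Treatments: targeted agents with PI3K inhibitors. Dosing: clinically relevant, half-log spacing, 10 microM ceiling without known Cmax. Read-out: cell viability.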
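Also: spheroids exposed to agents for seven days before readout.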
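For viability, T/C in this document: percent of vehicle DMSO control viability so 100% = untreated growth.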

With `CC(Cn1ccc(-c2ccc(C#N)c(Cl)c2)n1)NC(=O)c1cc(C(C)O)[nH]n1` (configuration not stated) + CC(Nc1ncnc2nc[nH]c12)c1cc2cccc(Cl)c2c(=O)n1-c1ccccc1 the IC50 (second compound 0.0316 µM) was over 10 µM, the IC50 (second compound 0.1 µM) was over 10 µM and the IC50 (second compound 0.316 µM) was over 10 µM. For the same molecule, the IC50 (second compound 1 µM) was over 10 µM, the IC50 (second compound 3.16 µM) was over 10 µM and the IC50 (second compound 10 µM) was over 10 µM. The viability, T/C (second compound 0.0316 µM, first compound 0.0316 µM) was 105%, the viability, T/C (second compound 0.0316 µM, first compound 0.1 µM) was 78.9% and the viability, T/C (second compound 0.0316 µM, first compound 0.316 µM) was 96.6%. The viability, T/C (second compound 0.0316 µM, first compound 1 µM) was 87%, the viability, T/C (second compound 0.0316 µM, first compound 3.16 µM) was 81.7% and the viability, T/C (second compound 0.0316 µM, first compound 10 µM) was 76.3%. It also gave a viability, T/C (second compound 0.1 µM, first compound 0.0316 µM) of 86.8%, a viability, T/C (second compound 0.1 µM, first compound 0.1 µM) of 89.3% and a viability, T/C (second compound 0.1 µM, first compound 0.316 µM) of 82.6%. For the same molecule, the viability, T/C (second compound 0.1 µM, first compound 1 µM) was 83%, the viability, T/C (second compound 0.1 µM, first compound 3.16 µM) was 94.5% and the viability, T/C (second compound 0.1 µM, first compound 10 µM) was 70.2%. For the same molecule, the viability, T/C (second compound 0.316 µM, first compound 0.0316 µM) was 83.2%, the viability, T/C (second compound 0.316 µM, first compound 0.1 µM) was 78.5% and the viability, T/C (second compound 0.316 µM, first compound 0.316 µM) was 88.9%. For the same molecule, the viability, T/C (second compound 0.316 µM, first compound 1 µM) was 88.8%, the viability, T/C (second compound 0.316 µM, first compound 3.16 µM) was 85.5% and the viability, T/C (second compound 0.316 µM, first compound 10 µM) was 85.9%. The viability, T/C (second compound 1 µM, first compound 0.0316 µM) was 92.2%, the viability, T/C (second compound 1 µM, first compound 0.1 µM) was 76.3% and the viability, T/C (second compound 1 µM, first compound 0.316 µM) was 89.6%. It also gave a viability, T/C (second compound 1 µM, first compound 1 µM) of 80.5%, a viability, T/C (second compound 1 µM, first compound 3.16 µM) of 77% and a viability, T/C (second compound 1 µM, first compound 10 µM) of 70.3%. For the same molecule, the viability, T/C (second compound 3.16 µM, first compound 0.0316 µM) was 74%, the viability, T/C (second compound 3.16 µM, first compound 0.1 µM) was 73.7% and the viability, T/C (second compound 3.16 µM, first compound 0.316 µM) was 79.2%. It also gave a viability, T/C (second compound 3.16 µM, first compound 1 µM) of 72.5%, a viability, T/C (second compound 3.16 µM, first compound 3.16 µM) of 75% and a viability, T/C (second compound 3.16 µM, first compound 10 µM) of 74.2%. The viability, T/C (second compound 10 µM, first compound 0.0316 µM) was 60.9%, the viability, T/C (second compound 10 µM, first compound 0.1 µM) was 55.3% and the viability, T/C (second compound 10 µM, first compound 0.316 µM) was 73.4%. The viability, T/C (second compound 10 µM, first compound 1 µM) was 55.4%, the viability, T/C (second compound 10 µM, first compound 3.16 µM) was 65.4% and the viability, T/C (second compound 10 µM, first compound 10 µM) was 56.8%.

— PubChem BioAssay AID1963985 (Molecular Pharmacology Branch, DTP, NCI, 2024)
